One data set addresses CYP2C19 (Homo sapiens (Human), UniProt P33261). The experiment in a line: Cytochrome P450 isozyme inhibitory activity test, CYP2C19. The format is in vitro ADME. Conditions: human liver microsomes; read-out: Cytochrome P450 isoenzyme IC50, CYP2C19. The protocol: (§1) Cytochrome P450 Isozyme Inhibitory Activity Test
(§2) The inhibitory activities of test compounds against different subtypes of human cytochrome P450 isoenzymes were determined.
(§3) Preparing test compounds, standard inhibitor (100×final concentration) and mixed substrate working solutions; Microsomes (purchased from Corning Inc) frozen in −80° C. freezer was taken out and thawed. 20 μL of the test compound and standard inhibitor solution were added to the corresponding wells, and at the same time 20 μL of the corresponding solvent was added to the no inhibitor control wells (NIC) and blank control wells (Blank); then 20 μL of mixed substrate solution was added to the corresponding wells, except for Blank wells (adding 20 μL of Phosphate Buffer (PB) to Blank wells); the human liver microsome solution was prepared (marking the date after use and putting back in the refrigerator immediately), then 158 μL of human liver microsome solution was immediately added to all wells; the above sample plate was pre-incubated in a 37° C. water bath, and then coenzyme factor (NADPH) solution was prepared; 10 minutes later, 20 μL of NADPH solution was added to all wells. […]

For the next data set, the target named is CYP2D6 (Homo sapiens (Human), UniProt P10635). The experiment in a line: Cytochrome P450 isozyme inhibitory activity test, CYP2D6. It is filed as in vitro ADME. As to conditions: human liver microsomes; read-out: Cytochrome P450 isoenzyme IC50, CYP2D6. The protocol: as §1, §2, §3
CYP2D6, sequence (P10635 whole entry): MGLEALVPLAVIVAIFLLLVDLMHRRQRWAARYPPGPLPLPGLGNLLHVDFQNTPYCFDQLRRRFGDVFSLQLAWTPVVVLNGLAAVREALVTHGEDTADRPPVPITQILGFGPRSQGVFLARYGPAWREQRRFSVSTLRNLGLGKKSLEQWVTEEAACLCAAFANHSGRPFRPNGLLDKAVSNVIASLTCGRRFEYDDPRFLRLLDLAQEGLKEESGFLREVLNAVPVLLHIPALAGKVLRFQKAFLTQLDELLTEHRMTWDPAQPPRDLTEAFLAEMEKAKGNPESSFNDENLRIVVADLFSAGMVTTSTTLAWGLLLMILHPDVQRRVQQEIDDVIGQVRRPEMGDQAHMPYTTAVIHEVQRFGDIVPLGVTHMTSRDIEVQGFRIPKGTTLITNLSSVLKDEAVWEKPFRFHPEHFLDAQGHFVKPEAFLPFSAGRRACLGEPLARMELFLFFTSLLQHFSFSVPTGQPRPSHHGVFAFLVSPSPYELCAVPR
Background: Microsomes from liver hold many membrane-bound enzymes, among them those of drug oxidation.

Another data set concerns Rat hepatocytes. The data set is described as follows: Hepatocytes metabolic stability (HMS), rat hepatocytes. It is filed as in vitro ADME. As to conditions: for Intrinsic hepatic clearance, Rat: CLint(liver). The procedure:
(§4) Assay Example 3: Hepatocytes Metabolic Stability (HMS) Study
(§5) To test the metabolic stability of the test sample in human and rat hepatocytes.
(§6) 2.1 Test compound (10 mM), control substance: 7-Ethoxycoumarin (30 mM), 7-Hydroxycoumarin (control substance, 30 mM)
(§7) 2.3 Buffer System: • Thawing medium: Williams' medium E containing 5% fetal bovine serum, 30% Percoll solution and other auxiliary materials • Incubation medium: Williams medium E (without phenol red) containing 2 mM L-glutamine and 25 mM hydroxyethylpiperazine ethane sulfonic acid. • Stop solution: 200 ng/mL of tosylbutyramide and labetalol in acetonitrile as internal standards. • Dilution solution: Ultrapure water. 3. Method of the Assay • 1) The exact amount of positive control compound was dissolved in dimethyl sulfoxide (DMSO) to give a 30 mM solution • 2) 10 mM test compound and 30 mM positive control compound were diluted to 1 mM and 3 mM with DMSO in 96-well plates. • 3) 1 mM test compound and 3 mM positive control compound was diluted into 100 μM and 300 μM quantification solutions with acetonitrile. • 4) The cryopreserved cells were thawed, dissociated and suspended in culture medium, and then diluted to 0.5×10^6 cells/mL with pre-warmed culture medium. • 5) 198 μL of pre-warmed cell suspension was added to a 96-well plate. • 6) 100 μL of stop solution (acetonitrile containing 200 ng/mL tosylbutyramide and 200 ng/mL labetalol as internal standard) was transferred in a set of pre-labeled 96-well plates. • 7) 2 μL of 100 μM test compound or 300 μM positive control quantitation solution was added in duplicate to each well of the 96-well plate. • 8) The TO samples were mixed to achieve uniform suspension over about 1 min, and then 20 μL of each sample was immediately transferred into wells containing 100 μL of ice-cold stop solution followed by mixing. • 9) All plates were incubated at 37° C. in 5% CO2 in a 95% humidified incubator, with constant shaking at approximately 600 rpm for reaction. • 10) At 15, 30, 60 and 90 min, samples were mixed, and then 20 μL of each sample was transferred to wells containing 100 μL of ice-cold stop solution at each time point and mixed. • 11) Medium control (MC) sample plates (labeled as TO-MC and T90-MC) were prepared at TO and T90 by adding the same components to each well except for the cell suspension. […]
(§8) The elimination rate constant k of the test compound and the control compound in hepatocytes was calculated by plotting the logarithm of the residual ratio vs time, and the half-life (T1/2) and in vitro intrinsic clearance rate (CLint) were obtained by using the elimination rate k. […]

Another data set relates to MDR1-MDCK II cells. Conditions: for Papp (AB) / Papp (BA): 2 μM, pH 7.4, […]; for Papp (AB): A to B; for Papp (BA): B to A. The procedure:
Membrane Permeability MDR1 Test
MDR1-MDCK II cells are Madin-Darby canine kidney cells transfected with human MDR1 gene, which can stably express high P-gp. The aim of this study was to test the bidirectional permeability of compounds across the MDR1-MDCK II cell model and to assess whether they are transported by efflux.
Test compounds were diluted in transport buffer (HBSS, 10 mM Hepes with DMSO, pH 7.4) to a concentration of 2 μM (DMSO<1%) and applied on the apical or basolateral side of the cell monolayer. The compound to be tested was tested in duplicate in the direction of from A to B or from B to A, digoxin was tested at 10 μM in the direction of from A to B or from B to A, while nadolol and metoprolol were tested at 2 μM from A to B. Plates were incubated in a CO2 incubator at 37±1° C. in a saturated humidity of 5% CO2 for 2.5 hours without shaking. In addition, the efflux ratio of each compound was determined, and for the test and reference compounds quantitation was conducted. Analysis was carried out by LC/MS/MS according to the peak area ratio of analyte/IS. After the transport assay, the Lucifer Yellow exclusion assay was used to determine integrity of the cell monolayer. The buffer was removed from the apical and basolateral compartments, then 75 μL of 100 μM luciferin yellow was added to the transport buffer, and 250 μL of the transport buffer was added to the apical and basolateral compartments, respectively. The plate was incubated at 37° C., 5% CO2 and saturated humidity for 30 minutes without shaking. After 30 minutes of incubation, 20 μL of luciferin yellow sample was withdrawn from the apical, followed by the addition of 60 μL of transport buffer. An 80 μL luciferin yellow sample was then collected basolaterally.
The apparent permeability coefficient (Papp, cm/s), efflux rate and recovery rate were calculated using the following formulae.
[formula] dCr/dt is the cumulative concentration of the compound at the receiver end over unit time (μM/s); Vr is the volume of the receiver end solution (0.075 mL and 0.250 mL for the apical and basal ends, respectively); Ais the relative surface area (0.0804 cm^2) of the cell monolayer; C0 is the initial concentration (nM) of the test substance at the administration end or the peak area ratio of the reference substance.
[formula] C0 is the initial concentration (nM) of the test substance at the administration end or the peak area ratio of the reference substance; Va is the volume of the administration end (0.075 mL for the apical side and 0.250 mL for the basal side); Cd and Cr are the final concentration (nM) of the test substance at the administration end and the receiver end or the peak area ratio of the reference substance.

In a further data set the test system is Human hepatocytes. The experiment in a line: Hepatocytes metabolic stability (HMS), human hepatocytes. It is filed as in vitro ADME. As to conditions: for Intrinsic hepatic clearance, Human: CLint(liver). The protocol:
as §4, §5, §6, §7, §8

A further data set deals with CYP2C9 (Homo sapiens (Human), UniProt P11712). The data set is described as follows: Cytochrome P450 isozyme inhibitory activity test, CYP2C9. The format is in vitro ADME. Conditions: human liver microsomes; read-out: Cytochrome P450 isoenzyme IC50, CYP2C9. The procedure:
as §1, §2, §3

The nature of data set [1]: Pharmacokinetics in SD rats. The procedure: Pharmacokinetics of test compounds in SD rats
Sprague Dawley Rat (male, 180-350 g, 6-10 weeks old, Charles River Laboratories, Beijing)
Six male SD rats were divided into 2 groups. […] Whole blood was collected at 0 (the gavage group only), 0.083 (intravenous only), 0.25, 0.5, 1, 2, 4, 8 and 24 hours after administration. Whole blood was centrifuged at 3200 g at 4° C. for 10 min to obtain plasma.

The target of a further data set is CYP1A2 (Homo sapiens (Human), UniProt P05177). The data set is described as follows: Cytochrome P450 isozyme inhibitory activity test, CYP1A2. The format is in vitro ADME. Conditions: human liver microsomes; read-out: Cytochrome P450 isoenzyme IC50, CYP1A2. The protocol:
as §1, §2, §3

Another data set concerns the target CYP3A4-M (Homo sapiens (Human), UniProt P08684). The experiment in a line: Cytochrome P450 isozyme inhibitory activity test, CYP3A4-M. It is filed as in vitro ADME. Conditions: human liver microsomes; read-out: Cytochrome P450 isoenzyme IC50, CYP3A4-M. The procedure:
as §1, §2, §3

For data set [2] the following is noted: 2 subjects; cited from earlier work.
The conditions of data set [3]: high dose of 80 mg/day; cited from earlier work.

A value given as a limit tells only on which side of the number the result lay.

CYP2C9, sequence (P11712 whole entry): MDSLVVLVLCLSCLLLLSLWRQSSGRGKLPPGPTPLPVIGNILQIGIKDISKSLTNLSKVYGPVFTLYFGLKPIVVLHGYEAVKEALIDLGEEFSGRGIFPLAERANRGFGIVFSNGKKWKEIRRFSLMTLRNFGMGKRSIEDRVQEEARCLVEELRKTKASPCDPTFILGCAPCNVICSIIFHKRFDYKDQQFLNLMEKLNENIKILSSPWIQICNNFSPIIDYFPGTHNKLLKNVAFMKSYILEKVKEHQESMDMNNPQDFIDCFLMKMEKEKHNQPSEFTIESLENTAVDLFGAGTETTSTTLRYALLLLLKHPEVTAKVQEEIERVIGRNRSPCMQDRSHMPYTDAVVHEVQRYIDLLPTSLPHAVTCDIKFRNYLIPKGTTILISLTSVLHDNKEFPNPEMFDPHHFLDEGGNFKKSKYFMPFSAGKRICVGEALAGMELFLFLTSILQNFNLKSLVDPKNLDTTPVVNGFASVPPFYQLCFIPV
CYP3A4-M, sequence (P08684 whole entry): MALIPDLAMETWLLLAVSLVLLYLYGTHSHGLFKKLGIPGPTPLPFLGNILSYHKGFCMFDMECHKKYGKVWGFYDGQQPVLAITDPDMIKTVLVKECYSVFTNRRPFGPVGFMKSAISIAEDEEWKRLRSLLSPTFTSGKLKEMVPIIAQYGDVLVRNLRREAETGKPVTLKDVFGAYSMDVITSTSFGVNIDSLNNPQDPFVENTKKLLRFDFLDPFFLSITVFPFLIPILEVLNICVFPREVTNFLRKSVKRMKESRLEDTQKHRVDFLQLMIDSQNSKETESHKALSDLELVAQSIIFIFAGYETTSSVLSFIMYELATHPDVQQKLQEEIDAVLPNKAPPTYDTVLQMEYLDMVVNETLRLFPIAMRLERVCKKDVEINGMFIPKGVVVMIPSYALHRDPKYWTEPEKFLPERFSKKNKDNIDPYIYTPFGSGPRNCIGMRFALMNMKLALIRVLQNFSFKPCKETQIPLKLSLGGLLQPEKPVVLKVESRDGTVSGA
CYP2C19, sequence (P33261 whole entry): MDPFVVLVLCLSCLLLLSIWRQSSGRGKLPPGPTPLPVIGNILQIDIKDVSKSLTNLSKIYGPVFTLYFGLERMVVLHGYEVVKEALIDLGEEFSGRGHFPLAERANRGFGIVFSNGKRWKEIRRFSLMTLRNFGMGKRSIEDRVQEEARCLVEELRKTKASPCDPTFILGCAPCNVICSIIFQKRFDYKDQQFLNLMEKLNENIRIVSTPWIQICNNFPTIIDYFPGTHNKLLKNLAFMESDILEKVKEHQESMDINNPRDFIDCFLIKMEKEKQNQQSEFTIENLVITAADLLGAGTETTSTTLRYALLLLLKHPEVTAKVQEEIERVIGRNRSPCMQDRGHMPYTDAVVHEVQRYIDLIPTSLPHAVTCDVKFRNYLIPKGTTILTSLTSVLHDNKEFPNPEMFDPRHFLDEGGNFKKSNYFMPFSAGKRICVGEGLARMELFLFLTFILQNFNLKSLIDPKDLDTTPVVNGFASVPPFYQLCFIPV
CYP1A2, sequence (P05177 whole entry): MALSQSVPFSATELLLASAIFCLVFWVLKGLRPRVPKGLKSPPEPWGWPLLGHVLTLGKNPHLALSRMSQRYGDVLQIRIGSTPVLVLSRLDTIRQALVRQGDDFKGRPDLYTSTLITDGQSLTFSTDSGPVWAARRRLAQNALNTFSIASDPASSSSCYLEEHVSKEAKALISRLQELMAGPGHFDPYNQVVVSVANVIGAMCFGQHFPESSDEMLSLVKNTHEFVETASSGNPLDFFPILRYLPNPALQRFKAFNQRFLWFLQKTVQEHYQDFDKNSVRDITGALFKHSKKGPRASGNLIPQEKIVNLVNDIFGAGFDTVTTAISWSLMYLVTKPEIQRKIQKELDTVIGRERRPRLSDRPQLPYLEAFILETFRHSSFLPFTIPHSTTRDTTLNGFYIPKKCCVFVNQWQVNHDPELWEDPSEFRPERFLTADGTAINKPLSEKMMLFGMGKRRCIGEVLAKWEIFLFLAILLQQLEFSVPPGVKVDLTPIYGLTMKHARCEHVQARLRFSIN

For `N#Cc1sc(-c2ccc(C(=O)O)c(O)c2)c2c1CCC(F)(F)C2` [Compound 2], the half-maximal inhibitory concentration (IC50) (usually the concentration at which inhibition is half-maximal) at CYP2C19 is more than 50 µM. In addition, the IC50 on CYP2D6 is more than 50 µM. In the data set with Rat hepatocytes, the “Clearance in rat hepatocytes (in words)” value is listed as “high clearance” and the “Intrinsic hepatic clearance, Rat” value came out at 188.4 mL/min/kg. In the data set on MDR1-MDCK II cells, the “Permeability (in words)” value is “high permeability”, the “Papp (AB)” value is 26.42 10^−6 cm/s and the “Papp (BA)” value is on record as 6.63 10^−6 cm/s. For the same compound, in the data set on Human hepatocytes, the “Clearance in human hepatocytes (in words)” value is recorded as “moderate clearance” and the “Intrinsic hepatic clearance, Human” value stood at 31.8 mL/min/kg. Also, the half-maximal inhibitory concentration (IC50) on CYP2C9 was 18.1 µM. The “Pharmacokinetic properties (in words)” value in data set [1] is reported as “good pharmacokinetic properties”. In data set [1] (2.89 mpk Intravenous injection), this compound gave an AUC0-inf of 41.8 µM·h, a C0 of 96.6 µM, a Cl of 3.59 mL/min/kg and a T1/2 of 3.74 h. The distribution volume (Vdss) (as a rule, a proportionality between amount in the body and measured concentration, not a real space) in data set [1] (2.89 mpk Intravenous injection) is recorded as 0.32 L/kg. For the same compound, in data set [1] (8.58 mpk Oral), the AUC0-inf is 86.6 µM·h; the Cmax (usually the maximum level reached in the sampled fluid or tissue) came out at 27.5 µM; the T1/2 is 2.47 h; the Tmax – broadly, the time from dosing to the highest level – came out at 0.5 h. This compound also registered a Bioavailability in data set [1] (8.58 mpk Oral vs 2.89 mpk Intravenous injection) of 62.1%. Further, in data set [1] (oral), the “Oral bioavailability (in words)” value is listed as “high oral bioavailability”. Also, at CYP1A2, the IC50 was more than 50 µM. In addition, on CYP3A4-M, the half-inhibitory concentration (IC50) is more than 50 µM.
Turning to `N#Cc1sc(-c2ccc(C(=O)O)c(O)c2)c2c1CCC2` [Compound 3], the IC50 at CYP2C19 is more than 50 µM. For the same compound, the IC50 on CYP2D6 is more than 50 µM. In the data set on Rat hepatocytes, the “Clearance in rat hepatocytes (in words)” value is recorded as “high clearance” and the “Intrinsic hepatic clearance, Rat” value amounted to 1097.9 mL/min/kg. Also, in the data set with MDR1-MDCK II cells, the “Permeability (in words)” value is recorded as “high permeability”, the “Papp (AB)” value is listed as 38.63 10^−6 cm/s and the “Papp (BA)” value was 10.99 10^−6 cm/s. In addition, in the data set with Human hepatocytes, the “Clearance in human hepatocytes (in words)” value is “moderate clearance” and the “Intrinsic hepatic clearance, Human” value worked out at 48.2 mL/min/kg. In addition, on CYP2C9, the IC50 came to 14.8 µM. For the same compound, the IC50 at CYP1A2 was more than 50 µM. Further, the IC50 on CYP3A4-M was more than 50 µM.
For the compound `N#Cc1cn(-c2ccc(C(=O)O)c(O)c2)c2ccccc12` [PF-06743649], the “Side effects after administration in clinical phase I trial” value in data set [2] was “acute PF-06743649-induced renal injury side effects”.
In the case of `Cc1nc(-c2ccc(OCC(C)C)c(C#N)c2)sc1C(=O)O` [febusteine], the “Patients who do not achieve the expected goal of lowing uric acid” value in data set [3] is reported as 40% to 52.

Source of the values: patent US12565480B2, “Thiophene derivatives as xanthine oxidase inhibitors and application thereof” (Tonghua Dongbao Pharmaceutical Co., Ltd., priority 2019, dated 2026).
